Legend:
Plutella xylostella = assay: Test Example 3: efficacy on Plutella xylostella (cabbage leaf dip); type: in vivo; conditions: foliar, 72 h, cabbage leaves dipped 30 seconds, second instar larvae, after 3 days, read-out: insecticidal rate
Protocol: (§1) 5 parts of the heteroaryl azole compound of the present invention, 93.6 parts of dimethylformamide, and 1.4 parts of polyoxyethylene alkyl aryl ether were mixed and dissolved to prepare emulsion (I) containing 5% of the active ingredient.
(§2) Insecticidal rate (%)=(The number of dead insects/The number of tested insects)×100
The emulsion (I) was diluted with water such that the concentration of the compound of the present invention was 125 ppm. Cabbage leaves were dipped in the dilution for 30 seconds. The resulting cabbage leaves were placed in a petri dish. Five second instar larvae of Plutella xylostella were released thereto. The petri dish was placed in a thermostat chamber having a temperature of 25° C. and a humidity of 60%. Life and death were determined after 3 days from the release of the insects, and the insecticidal rate was calculated. The test was conducted in duplicate.

Mythimna separata = assay: Test Example 1: efficacy on Mythimna separata (treated artificial feed); type: in vivo; conditions: 1 μl of emulsion (I) (5% active ingredient) in 0.8 g artificial feed; second instar larvae; 25° C.; fifth day
Description: as §1
For a control, 98.5 parts of dimethylformamide and 1.5 parts of polyoxyethylene alkyl aryl ether were mixed and dissolved to prepare emulsion (II).
as §2
0.8 g of commercially available artificial feed (Insecta LFS, manufactured by Nosan Corp.) and 1 μl of the emulsion (I) were well mixed to obtain test feed.
A plastic test container (capacity: 1.4 ml) was packed with 0.2 g of the test feed per treatment plot. Then, two second instar larvae of Mythimna separata were inoculated to each treatment plot. A plastic lid was put on the test container so as to prevent escape of the second instar larvae of Mythimna separata. The container was placed in a thermostat chamber of 25° C. On the fifth day, the insecticidal rate and the food intake were examined. The test was conducted in duplicate.
The insecticidal rate and the food intake of a control plot were examined in the same way as in Test Example 1 except that the emulsion (I) was changed to the emulsion (II).

Musca domestica = assay: Test Example 9: efficacy on Musca domestica (treated sugar cube); type: in vivo; conditions: 100 ppm per g of a cube of sugar; female adults; 25° C.; after hours (number not given)
Protocol: as §2
The compound of the present invention was diluted with acetone and added dropwise at 100 ppm per g of a cube of sugar. The cube of sugar was placed in a plastic cup. Ten female adults of Musca domestica were released, and a lid was put on the plastic cup. The plastic cup was stored at 25° C. Life and death were determined after hours from the release of the insects, and the insecticidal rate was calculated. The test was conducted in duplicate.

SMILES: CCS(=O)(=O)c1cnc(-n2cnc(N)n2)nc1-c1ncc(C(F)(F)C(F)(F)C(F)(F)C(F)(F)F)n1C
- melting point: 219 to 221 °C

SMILES: CCS(=O)(=O)c1cc(Br)cnc1-c1nnc(C(F)(F)C(F)(F)C(F)(F)C(F)(F)F)n1C
- melting point: 74 to 76 °C

SMILES: CCS(=O)(=O)c1cnc(-c2ncn(C)n2)nc1-c1ncc(C(F)(F)C(F)(F)C(F)(F)F)n1C [a-1]
- pest or weed control at 125 ppm (Plutella xylostella): ≥ 80%
- insecticidal rate or food intake as compared with the control plot (Mythimna separata): insecticidal rate of 100% for Mythimna separata or a food intake of 10% or less

SMILES: CCS(=O)(=O)c1cnc(-c2ncn(C)n2)nc1-c1ncc(C(F)(F)C(F)(F)C(F)(F)C(F)(F)F)n1C [a-2, 5-(ethylsulfonyl)-2-(1-methyl-1H-1,2,4-triazol-3-yl)-4-(1-methyl-5-(perfluorobutyl)-1H-imidazol-2-yl)pyrimidine]
- pest or weed control at 125 ppm (Plutella xylostella): ≥ 80%
- insecticidal rate or food intake as compared with the control plot (Mythimna separata): insecticidal rate of 100% for Mythimna separata or a food intake of 10% or less

SMILES: CCS(=O)(=O)c1cnc(-c2ncccn2)nc1-c1ncc(C(F)(F)C(F)(F)C(F)(F)C(F)(F)F)n1C [a-4]
- pest or weed control at 125 ppm (Plutella xylostella): ≥ 80%

SMILES: CCS(=O)(=O)c1cnc(-n2ncnc2N)nc1-c1ncc(C(F)(F)C(F)(F)C(F)(F)C(F)(F)F)n1C [a-6]
- pest or weed control at 125 ppm (Plutella xylostella): ≥ 80%
- insecticidal rate or food intake as compared with the control plot (Mythimna separata): insecticidal rate of 100% for Mythimna separata or a food intake of 10% or less

SMILES: CCS(=O)(=O)c1cnc(-c2ncnn2C)nc1-c1ncc(C(F)(F)C(F)(F)C(F)(F)C(F)(F)F)n1C [a-10]
- pest or weed control at 125 ppm (Plutella xylostella): ≥ 80%

SMILES: CCS(=O)(=O)c1cc(-c2ncccn2)cnc1-c1ncc(C(F)(F)C(F)(F)C(F)(F)C(F)(F)F)n1C [b-4]
- insecticidal rate or food intake as compared with the control plot (Mythimna separata): insecticidal rate of 100% for Mythimna separata or a food intake of 10% or less
- insecticidal rate (Musca domestica): ≥ 80%

SMILES: CCS(=O)(=O)c1cc(-c2ncccn2)cnc1-c1ncc(C(F)(F)C(F)(F)C(F)(F)F)n1C [b-19, 2-(5-(ethylsulfonyl)-6-(1-methyl-5-(perfluoropropyl)-1H-imidazol-2-yl)pyridin-3-yl)pyrimidine]
- pest or weed control at 125 ppm (Plutella xylostella): ≥ 80%

SMILES: CCS(=O)(=O)c1cc(-c2ccccn2)cnc1-c1ncc(C(F)(F)C(F)(F)C(F)(F)C(F)(F)F)n1C [b-59]
- insecticidal rate or food intake as compared with the control plot (Mythimna separata): insecticidal rate of 100% for Mythimna separata or a food intake of 10% or less

SMILES: CCS(=O)(=O)c1cc(-c2cc(F)cc(F)c2)cnc1-c1ncc(C(F)(F)C(F)(F)C(F)(F)F)n1C [b-60]
- insecticidal rate or food intake as compared with the control plot (Mythimna separata): insecticidal rate of 100% for Mythimna separata or a food intake of 10% or less

SMILES: CCS(=O)(=O)c1cc(-c2ncccc2F)cnc1-c1ncc(C(F)(F)C(F)(F)C(F)(F)C(F)(F)F)n1C [b-61]
- insecticidal rate or food intake as compared with the control plot (Mythimna separata): insecticidal rate of 100% for Mythimna separata or a food intake of 10% or less

SMILES: CCS(=O)(=O)c1cc(-c2ncccc2Cl)cnc1-c1ncc(C(F)(F)C(F)(F)C(F)(F)F)n1C [b-62]
- insecticidal rate or food intake as compared with the control plot (Mythimna separata): insecticidal rate of 100% for Mythimna separata or a food intake of 10% or less

SMILES: CCS(=O)(=O)c1cc(C2CC2)cnc1-c1ncc(C(F)C(F)(F)C(F)(F)C(F)(F)C(F)(F)F)n1C (stereo not shown) [b-63]
- insecticidal rate or food intake as compared with the control plot (Mythimna separata): insecticidal rate of 100% for Mythimna separata or a food intake of 10% or less

SMILES: CCS(=O)(=O)c1cc(-c2ncccn2)cnc1-c1ncc(C(F)C(F)(F)C(F)(F)C(F)(F)C(F)(F)F)n1C (stereo not shown) [b-64]
- insecticidal rate or food intake as compared with the control plot (Mythimna separata): insecticidal rate of 100% for Mythimna separata or a food intake of 10% or less

SMILES: CCS(=O)(=O)c1cc(-c2ccccn2)cnc1-c1ncc(C(F)C(F)(F)C(F)(F)C(F)(F)C(F)(F)F)n1C (stereo not shown) [b-66]
- insecticidal rate or food intake as compared with the control plot (Mythimna separata): insecticidal rate of 100% for Mythimna separata or a food intake of 10% or less

SMILES: CCS(=O)(=O)c1cc(OCC(F)(F)C(F)(F)F)cnc1-c1ncc(C(F)C(F)(C(F)(F)F)C(F)(F)F)n1C (stereo not shown) [b-68]
- insecticidal rate or food intake as compared with the control plot (Mythimna separata): insecticidal rate of 100% for Mythimna separata or a food intake of 10% or less

SMILES: CCS(=O)(=O)c1cc(OC(C)(C)C(F)(F)F)cnc1-c1ncc(C(F)C(F)(C(F)(F)F)C(F)(F)F)n1C (stereo not shown) [b-69]
- insecticidal rate or food intake as compared with the control plot (Mythimna separata): insecticidal rate of 100% for Mythimna separata or a food intake of 10% or less

SMILES: CCS(=O)(=O)c1cc(/C=N/OCC(F)(F)C(F)(F)F)cnc1-c1ncc(C(F)C(F)(F)C(F)(F)F)n1C (stereo not shown) [c-1]
- pest or weed control at 125 ppm (Plutella xylostella): ≥ 80%
- insecticidal rate or food intake as compared with the control plot (Mythimna separata): insecticidal rate of 100% for Mythimna separata or a food intake of 10% or less

SMILES: CCS(=O)(=O)c1cc(C2CC2)cnc1-c1nnc(C(F)(F)C(F)(F)C(F)(F)C(F)(F)F)n1C [c-4]
- pest or weed control at 125 ppm (Plutella xylostella): ≥ 80%

SMILES: CCS(=O)(=O)c1cc(-c2ncccn2)cnc1-c1nnc(C(F)(F)C(F)(F)C(F)(F)C(F)(F)F)n1C [c-5]
- pest or weed control at 125 ppm (Plutella xylostella): ≥ 80%
- insecticidal rate or food intake as compared with the control plot (Mythimna separata): insecticidal rate of 100% for Mythimna separata or a food intake of 10% or less

SMILES: CCS(=O)(=O)c1cc(C2CC2)c[n+]([O-])c1-c1ncc(C(F)C(F)(C(F)(F)F)C(F)(F)F)n1C (stereo not shown) [c-8]
- insecticidal rate or food intake as compared with the control plot (Mythimna separata): insecticidal rate of 100% for Mythimna separata or a food intake of 10% or less

Reference: patent publication US20210380556A1, “HETEROARYLAZOLE COMPOUND AND PEST CONTROL AGENT” (Nippon Soda Co., Ltd., priority 2018, published 2021)
